Data on ten compounds can be found in PubChem BioAssay (NCI).

Some test systems named below: BT-549 breast; SF-268 CNS; MCF7 breast; A498 renal; DU-145 prostate; 786-0 renal; COLO 205 colon; SNB-19 CNS.
Holding throughout (experiment): NCI tumour cell line growth inhibition, 48 h

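Where inhibition never reached the appropriate level, the endpoint shown equals the highest concentration tested. Otherwise, values were interpolated linearly from a five-concentration, 48-hour dose response in 96-well plates. GI50: concentration for 50% inhibition of growth. Definition used: TGI = concentration required for complete inhibition of growth.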 Bounds are passed on as bounds.

`Clc1ccc2nnnn2n1`: the GI50 in the test with BT-549 breast was 2.87 µM; with SF-268 CNS it was 3.74 µM; in the test on MCF7 breast, 3.11 µM; in the test with A498 renal, 15.1 µM; in the test with DU-145 prostate, 2.31 µM; in the test on 786-0 renal, 3.73 µM. Also, the GI50 is 2.03 µM in the test on COLO 205 colon and 31.8 µM with SNB-19 CNS. Also, the TGI in the test with BT-549 breast is 9.92 µM; in the test on SF-268 CNS it was 37.2 µM; in the test with MCF7 breast, 14.3 µM; with A498 renal, 54.9 µM; in the test with DU-145 prostate, 6.41 µM; in the test with 786-0 renal it was over 100 µM. For the same compound, the TGI is 3.81 µM in the test with COLO 205 colon and over 100 µM with SNB-19 CNS.
For the compound `Cc1cc(Cc2cc(C)cc(C(C)(C)C)c2O)c(O)c(Cc2cc(C)cc(C(C)(C)C)c2O)c1`, the TGI was determined as 10.6 µM in the test with BT-549 breast; 9.92 µM with SF-268 CNS; 7.93 µM with MCF7 breast; 7.2 µM with A498 renal; 13.7 µM in the test on DU-145 prostate; 9.09 µM in the test on 786-0 renal. Also, the TGI is 9.17 µM in the test with COLO 205 colon and 15.7 µM in the test with SNB-19 CNS.
In the case of `CN(C)CC1C(=O)O[C@H]2[C@H]1CC/C(COC(=O)c1cc3ccccc3[nH]1)=C\CC[C@@]1(C)O[C@@H]21` (some centres undefined), the GI50 with BT-549 breast is 1.66 µM; with SF-268 CNS it was 1.65 µM; in the test on MCF7 breast, 1.01 µM; in the test on A498 renal it was 11.1 µM; in the test with DU-145 prostate, 2.01 µM; in the test on 786-0 renal, 1.69 µM. The GI50 was 2.16 µM in the test on COLO 205 colon and 11.4 µM with SNB-19 CNS. Also, the TGI in the test with BT-549 breast is 4.48 µM; in the test with SF-268 CNS, 3.43 µM; in the test on MCF7 breast it was 4.55 µM; with A498 renal it was 23.9 µM; in the test with DU-145 prostate, 6.17 µM; in the test with 786-0 renal, 4.88 µM. Also, the TGI with COLO 205 colon was found to be 5.5 µM; with SNB-19 CNS it was 25.9 µM.
As to `O=c1[nH]c(=O)c2cc(C3CC(O)C(CO)O3)ccc2[nH]1` (centres undefined), the GI50 in the test on BT-549 breast, in the test with SF-268 CNS, with MCF7 breast, in the test on A498 renal, in the test on DU-145 prostate and in the test on 786-0 renal was over 100 µM in each case. Further, the GI50 in the test on COLO 205 colon and in the test on SNB-19 CNS was over 100 µM in each case. Further, the TGI in the test with BT-549 breast, with SF-268 CNS, with MCF7 breast, in the test with A498 renal, with DU-145 prostate and in the test with 786-0 renal was over 100 µM each time. Further, the TGI with COLO 205 colon and in the test on SNB-19 CNS was over 100 µM in each case.
In the case of `COc1ccc(S(=O)(=O)Nc2cc(/C=C\c3cc(OC)c(OC)c(OC)c3)ccc2OC)cc1`, the GI50 in the test on BT-549 breast was 0.197 µM; with SF-268 CNS, 0.401 µM; in the test with MCF7 breast, 0.0426 µM; in the test with A498 renal, 0.0357 µM; in the test with DU-145 prostate, 0.341 µM; with 786-0 renal it was 0.361 µM. The figures for the GI50 in the test on COLO 205 colon and with SNB-19 CNS were 0.0383 µM and 0.352 µM, respectively. Moreover, the TGI with BT-549 breast was over 100 µM; with SF-268 CNS it was over 100 µM; with MCF7 breast it was over 100 µM; in the test on A498 renal it was 0.382 µM; in the test on DU-145 prostate, over 100 µM; in the test on 786-0 renal, 95.6 µM. Besides, the TGI in the test with COLO 205 colon is 0.158 µM; in the test on SNB-19 CNS, over 100 µM.
On to `CCCCCCCCCCCCOC1C(C(COC2OC(C3COC(C)(C)O3)C3OC(C)(C)OC23)NC(=O)NS(=O)(=O)c2ccccc2)OC2OC(C)(C)OC21` (centres undefined), for which the GI50 in the test with BT-549 breast was 3.61 µM; with SF-268 CNS, 4.34 µM; with MCF7 breast it was 2.98 µM; in the test with A498 renal, 3.87 µM; with DU-145 prostate it was 2.74 µM; in the test with 786-0 renal it was 3.51 µM. Moreover, the GI50 is 4.37 µM in the test on COLO 205 colon and 9.18 µM with SNB-19 CNS. Further, the TGI came out at 13.1 µM in the test with BT-549 breast; 19.6 µM in the test on SF-268 CNS; 12.9 µM in the test with MCF7 breast; 11.9 µM in the test on A498 renal; 8.39 µM in the test on DU-145 prostate; 11.6 µM in the test on 786-0 renal. Further, the values for the TGI in the test on COLO 205 colon and with SNB-19 CNS were 20.7 µM and 40 µM, respectively.
As to `C=C1C(=O)O[C@H]2[C@H](OC(C)=O)[C@@H](C)CCC/C(C)=C/CC[C@@]3(C)O[C@@H]3C[C@@H]12`, the TGI in the test with BT-549 breast was determined as 8.76 µM; in the test on SF-268 CNS it was 14 µM; in the test with MCF7 breast, 7.71 µM; in the test with A498 renal, 8.76 µM; with DU-145 prostate it was 6.87 µM; with 786-0 renal, 3.56 µM. The TGI with COLO 205 colon was 16.5 µM; with SNB-19 CNS it was 34 µM.
With `COc1cc(/C=C/C(=O)c2c(C)nc3ccccc3c2/C=C/c2ccc(C)cc2)cc(OC)c1OC`, the GI50 was 2.06 µM with BT-549 breast; 2.21 µM in the test with SF-268 CNS; 1.39 µM with MCF7 breast; 2 µM with A498 renal; 1.86 µM in the test on DU-145 prostate; 1.95 µM in the test with 786-0 renal. The GI50 is 2.53 µM with COLO 205 colon and 1.69 µM in the test with SNB-19 CNS. In addition, the TGI stood at 4.57 µM with BT-549 breast; 6.42 µM with SF-268 CNS; 3.51 µM with MCF7 breast; 4.87 µM in the test on A498 renal; 3.66 µM with DU-145 prostate; 3.81 µM in the test with 786-0 renal. The values for the TGI with COLO 205 colon and in the test with SNB-19 CNS were 6.09 µM and 3.14 µM, respectively.
On to `O=S(=O)(c1cccc2c(Cl)cccc12)N1CCCNCC1`, for which the GI50 in the test on BT-549 breast was 19.8 µM; in the test with SF-268 CNS, 21.8 µM; with MCF7 breast, 24.5 µM; in the test with A498 renal, 17.9 µM; with DU-145 prostate, 17.1 µM; in the test on 786-0 renal, 11.1 µM. For the same compound, the GI50 with COLO 205 colon was 16.4 µM; with SNB-19 CNS, 16.3 µM. In addition, the TGI in the test with BT-549 breast came to 36.4 µM; with SF-268 CNS, 52.9 µM; in the test with MCF7 breast it was 50.8 µM; in the test on A498 renal, 32.5 µM; in the test on DU-145 prostate, 32.1 µM; with 786-0 renal, 23.1 µM. The TGI came out at 35.4 µM with COLO 205 colon and 30.5 µM in the test with SNB-19 CNS.
For `FC(F)(F)c1ccc(C#Cc2ccccc2C#Cc2ccccc2)cc1`, the GI50 was over 100 µM with BT-549 breast; 42.9 µM in the test on SF-268 CNS; 22.5 µM in the test with MCF7 breast; 29.3 µM in the test with A498 renal; 48 µM in the test with DU-145 prostate; 46.1 µM with 786-0 renal. Also, the figures for the GI50 with COLO 205 colon and with SNB-19 CNS were 34.3 µM and 69.3 µM, respectively. Moreover, the TGI with BT-549 breast is over 100 µM; in the test on SF-268 CNS it was over 100 µM; in the test on MCF7 breast, 89.8 µM; in the test with A498 renal, 83.4 µM; in the test with DU-145 prostate, over 100 µM; in the test with 786-0 renal, over 100 µM. Besides, the TGI in the test with COLO 205 colon and with SNB-19 CNS was over 100 µM in each case.
